Experimental data published in the supplement of paper PMC4628005.

How the values were obtained:
Settings in all cases: drug exposure time: 96 h
[1] = compound: C#Cc1cccc(Nc2ncnc3cc(OCCOC)c(OCCOC)cc23)c1 [Erlotinib]
Experimental: (§1)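 Breast cancer cell lines were grown in RPMI 1640 with 10% FBS on collagen I-coated 96-well plates and treated for 96 h (from 24 h after seeding) with 12 dilutions per drug, in triplicate. Growth was read by sulforhodamine B total-protein staining (absorbance 570 nm) relative to diluent control, and IC50 was calculated. The top dose was 1e-5 M for most drugs; Bortezomib went to 2e-5 M and Sirolimus and 17-AAG to 2e-6 M[…].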

[2] = compound: CC(=O)O[C@@]12CO[C@@H]1C[C@H](O)[C@@]1(C)C(=O)[C@H](O)C3=C(C)[C@@H](OC(=O)[C@H](O)[C@@H](NC(=O)OC(C)(C)C)c4ccccc4)C[C@@](O)([C@@H](OC(=O)c4ccccc4)[C@H]21)C3(C)C [Docetaxel]
Experimental: as §1

[3] = compound: CC(=O)O[C@H]1C(=O)[C@@]2(C)[C@H]([C@H](OC(=O)c3ccccc3)[C@]3(O)C[C@H](OC(=O)[C@H](O)[C@@H](NC(=O)c4ccccc4)c4ccccc4)C(C)=C1C3(C)C)[C@]1(OC(C)=O)CO[C@@H]1C[C@@H]2O [Paclitaxel]
Experimental: as §1

[4] = compound: CC(C)(C)C[C@H]1N[C@@H](C(=O)NCC[C@H](O)CO)[C@H](c2cccc(Cl)c2)[C@@]12C(=O)Nc1cc(Cl)c(F)cc12 [MI-219]
Experimental: as §1

[5] = compound: CC/C(=C(\c1ccccc1)c1ccc(OCCN(C)C)cc1)c1ccccc1 [Tamoxifen]
Experimental: as §1

[6] = compound: CCN(CC)CCNC(=O)c1c(C)[nH]c(/C=C2\C(=O)Nc3ccc(F)cc32)c1C [Sunitinib]
Experimental: as §1

[7] = compound: CN(Cc1cnc2nc(N)nc(N)c2n1)c1ccc(C(=O)N[C@@H](CCC(=O)O)C(=O)O)cc1 [Methotrexate]
Experimental: as §1

[8] = compound: CNC(=O)c1cc(Oc2ccc(NC(=O)Nc3ccc(Cl)c(C(F)(F)F)c3)cc2)ccn1 [Sorafenib]
Experimental: as §1

[9] = compound: COc1cc2/c(=N/c3ccc(Br)cc3F)nc[nH]c2cc1OCC1CCN(C)CC1 [Vandetanib]
Experimental: as §1

[10] = compound: COc1cc2ncnc(Nc3ccc(F)c(Cl)c3)c2cc1OCCCN1CCOCC1 [Gefitinib]
Experimental: as §1

[11] = compound: COc1ccc(C2=N[C@@H](c3ccc(Cl)cc3)[C@@H](c3ccc(Cl)cc3)N2C(=O)N2CCNC(=O)C2)c(OC(C)C)c1 [Nutlin-3]
Experimental: as §1

[12] = compound: COc1cccc2c1C(=O)c1c(O)c3c(c(O)c1C2=O)C[C@@](O)(C(=O)CO)C[C@@H]3O[C@H]1C[C@H](N)[C@H](O)[C@H](C)O1 [Doxorubicin]
Experimental: as §1

[13] = compound: CS(=O)(=O)CCNCc1ccc(-c2ccc3ncnc(Nc4ccc(OCc5cccc(F)c5)c(Cl)c4)c3c2)o1 [Lapatinib]
Experimental: as §1

[14] = compound: Cc1[nH]c2ccccc2c1CCNCc1ccc(/C=C/C(=O)NO)cc1 [Panobinostat]
Experimental: as §1

[15] = compound: Cc1cc2c(F)c(Oc3ncnn4cc(OC[C@@H](C)O)c(C)c34)ccc2[nH]1 [Brivanib]
Experimental: as §1

[16] = compound: Cc1nc(Nc2ncc(C(=O)Nc3c(C)cccc3Cl)s2)cc(N2CCN(CCO)CC2)n1 [Dasatinib]
Experimental: as §1

[17] = compound: Cn1cc(CNCC2CCN(c3ncc(C(=O)NO)cn3)CC2)c2ccccc21 [Quisinostat]
Experimental: as §1

[18] = compound: Cn1cncc1[C@@](N)(c1ccc(Cl)cc1)c1ccc2c(c1)c(-c1cccc(Cl)c1)cc(=O)n2C [Tipifarnib]
Experimental: as §1

[19] = compound: N.N.[Cl][Pt][Cl] [Cisplatin]
Experimental: as §1

[20] = compound: Nc1ncn([C@@H]2O[C@H](CO)[C@@H](O)[C@H]2O)c(=O)n1 [Azacitidine]
Experimental: as §1

[21] = compound: Nc1ncn([C@H]2C[C@H](O)[C@@H](CO)O2)c(=O)n1 [Decitabine]
Experimental: as §1

[22] = compound: O=C(/C=C/c1cccc(S(=O)(=O)Nc2ccccc2)c1)NO [Belinostat]
Experimental: as §1

[23] = compound: O=C(CCCCCCC(=O)Nc1ccccc1)NO [Vorinostat]
Experimental: as §1

[24] = compound: O=C1NC(=O)[C@@H](c2cn3c4c(cccc24)CCC3)[C@@H]1c1c[nH]c2ccccc12 [ARQ197]
Experimental: as §1

[25] = compound: O=C1c2c(O)ccc(O)c2C(=O)c2c(NCCNCCO)ccc(NCCNCCO)c21 [Mitoxantrone]
Experimental: as §1

[26] = compound: O=c1[nH]cc(F)c(=O)[nH]1 [5-Fluorouracil]
Experimental: as §1

[27] = compound: c1ccc2c(CCNc3ccc(Nc4ccncc4)cc3)c[nH]c2c1 [Serdemetan]
Experimental: as §1

[28] = compound: C=CCNC1=C2C[C@@H](C)C[C@H](OC)[C@H](O)[C@@H](C)/C=C(\C)[C@H](OC(N)=O)[C@@H](OC)/C=C\C=C(/C)C(=O)NC(=CC1=O)C2=O [17-AAG]
Experimental: (§2)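 Same SRB 96 h IC50 screen on breast cancer cell lines (RPMI 1640 + 10% FBS, collagen I-coated 96-well plates, triplicates, 12 dilutions), for drugs with a different dose range: Bortezomib up to 2e-5 M; Sirolimus and 17-AAG up to 2e-6 M. Sirolimus values at the 2e-6 M top dose are censored.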

[29] = compound: CC(C)C[C@H](NC(=O)[C@H](Cc1ccccc1)NC(=O)c1cnccn1)B(O)O [Bortezomib]
Experimental: as §2

[30] = compound: CO[C@H]1C[C@@H]2CC[C@@H](C)[C@@](O)(O2)C(=O)C(=O)N2CCCC[C@H]2C(=O)O[C@H]([C@H](C)C[C@@H]2CC[C@@H](O)[C@H](OC)C2)CC(=O)[C@H](C)/C=C(\C)[C@@H](O)[C@@H](OC)C(=O)[C@H](C)C[C@H](C)/C=C/C=C/C=C/1C [Sirolimus]
Experimental: as §2

Test System	IC50 (SRB growth assay) [1] [nM]	IC50 (SRB growth assay) [2] [nM]	IC50 (SRB growth assay) [3] [nM]	IC50 (SRB growth assay) [4] [nM]	IC50 (SRB growth assay) [5] [nM]	IC50 (SRB growth assay) [6] [nM]	IC50 (SRB growth assay) [7] [nM]	IC50 (SRB growth assay) [8] [nM]	IC50 (SRB growth assay) [9] [nM]	IC50 (SRB growth assay) [10] [nM]	IC50 (SRB growth assay) [11] [nM]	IC50 (SRB growth assay) [12] [nM]	IC50 (SRB growth assay) [13] [nM]	IC50 (SRB growth assay) [14] [nM]	IC50 (SRB growth assay) [15] [nM]	IC50 (SRB growth assay) [16] [nM]	IC50 (SRB growth assay) [17] [nM]	IC50 (SRB growth assay) [18] [nM]	IC50 (SRB growth assay) [19] [nM]	IC50 (SRB growth assay) [20] [nM]	IC50 (SRB growth assay) [21] [nM]	IC50 (SRB growth assay) [22] [nM]	IC50 (SRB growth assay) [23] [nM]	IC50 (SRB growth assay) [24] [nM]	IC50 (SRB growth assay) [25] [nM]	IC50 (SRB growth assay) [26] [nM]	IC50 (SRB growth assay) [27] [nM]	IC50 (SRB growth assay) [28] [nM]	IC50 (SRB growth assay) [29] [nM]	IC50 (SRB growth assay) [30] [nM]
T 47 D	7140	0.62	1.72	> 10000	3420	4310	> 10000	2730	2520	8770	> 10000	10.4	2210	10.5	> 10000	> 10000	8.14	403	> 10000	7300	> 10000	239	828	1460	2.65	2800	1100	913	1.7	0.143
UACC 812	4080	1.65	5.67	822	> 10000	5490	> 10000	3110	3540	4830	1720	79.9	132	29.9	> 10000	1600	17.2	666	> 10000	> 10000	> 10000	901	2270	528	275	6240	1050	3.62	7.5	0.144
ZR 75-1	> 10000	4.52	6.65	> 10000	4490	> 10000	34.5	5980	3820	> 10000	> 10000	44.9	6330	46.8	> 10000	1660	27.1	822	> 10000	3750	> 10000	1680	2980	733	10.2	2320	822	45.9	5.51	0.244
